Experiments:
PC-3 cells = assay: Dual Sensor: MitoCasp Assay in PC-3 prostate cancer cells; assay type: cell-based, human
Text: Techniques to assay enzymatic and signaling processes involved in apoptosis have been developed as standard protocols. One example of an early step in apoptosis, is the release of cytochrome C from mitochondria and the activation of caspase-3. Induction of the caspases (a series of cytosolic proteases) is one of the most consistently observed features of apoptosis. Caspases are a family of proteolytic enzymes that transmit the apoptotic signal using a proteolytic cascade. […] Caspases 3 and 7 are effector caspases, central to the caspase cascade pathways. In particular, caspase-3 plays a central role in the process. When caspases are activated, they cleave target proteins; one of the most important of these is poly-(ADP-ribose) polymerase (PARP), which is a protein located in the nucleus. Therefore, assays detecting release of cytochrome C, detecting caspase-3 activity and detecting PARP degradation are effective determinants of apoptosis. The loss of mitochondrial membrane potential is known to occur during apoptosis. To analyze mitochondrial membrane potential, a cationic dye may be used which accumulates in the mitochondria of healthy cells. Collapse of the mitochondrial membrane potential during apoptosis prevents the dye from accumulating in the mitochondria resulting in a decrease in fluorescent intensity that can be detected with flow cytometry. Dual Sensor: MitoCasp™ (Cell Technology) used herein in the Examples is an assay that measures caspase 3/7 activity and cells with decreased mitochondrial membrane potential. In this assay, caspase 3/7 activity is detected using a cell permeable carboxyfluorescein labeled caspase inhibitor, which binds covalently to active caspases 3 and 7. Cells that contain bound inhibitor are detected by an increase in fluorescence when samples are analyzed by flow cytometry.
PC-3 cells (ATCC #CRL-1435) were derived from a prostate adenocarcinoma (Kaighn et al., 1979). They were maintained in RPMI 1640 medium (Gibco) supplemented with 10% fetal bovine serum (Cansera), 100 U/mL penicillin, and 100 μg/mL streptomycin and 0.25 μg/mL amphotericin B. Cultures were maintained in medium at 37° C. with 5% CO2 and 100% relative humidity.
To harvest adherent cells, the existing medium was removed and cells were dissociated with 0.25% (w/v) trypsin-EDTA·4Na in Hank's Balanced Salt Solution (Gibco). To block the proteolytic action of the trypsin, the cells were resuspended in an excess of media containing fetal bovine serum. Cells were transferred to a 15 mL conical centrifuge tube and pelleted by centrifugation at 500×g for 5 min. Cell pellets were resuspended in media, and an aliquot of the cells were seeded into a new flask.
PC-3 cells were seeded in tissue culture flasks with regular growth medium and maintained under normal conditions. […] Following incubation under normal growth conditions for the specified time, cells were washed once with cold phosphate-buffered saline (PBS) (137 mM NaCl, 2.7 mM KCl, 4.3 mM Na2HPO4.7H2O, 1.4 mM KH2PO4) and harvested as previously described. Assays were carried out according to instructions given in kits. All Flow Cytometry was performed using a Coulter Epics XL (Beckman).
Following centrifugation at 500×g for 5 min, cell pellets were resuspended in PBS at 3.3×10^6 cells/mL. 300 μL cell suspension was mixed with 10 μL each of 30X Mitochondria Membrane Potential Dye and 30X Caspase 3/7 detection reagent. Following incubation for 60 min under normal growth conditions, cells were washed twice with 1× wash buffer and resuspended in 0.5 mL 1× wash buffer. Samples were analyzed by flow cytometry measuring the fluorescence emissions from 515 nm to 530 nm for caspase detection, and 574 nm to 600 nm for mitochondrial membrane potential detection.

[1] = Haemolytic properties of selected saponins; conditions: saponins purified to more than 75%
Text: The haemolytic properties of the various saponins that have been purified to more than 75% have been examined and are provided in Table 39. Haemolytic properties are not directly related to anti-cancer or apoptosis inducing properties of saponins but may be related to toxicity and utility of the saponins for preparation of injectable formulations. Saponins most suitable for injectable formulation will be less haemolytic. QS21, a purified Quillaja saponaria saponin with known haemolytic activity is used as reference.

CRL-2522 cells = assay: Vybrant Apoptosis Assay Kit #2 in CRL-2522 cells; assay type: cell-based, human
Text: Another apoptotic assay is the Annexin-V detection of extracellular phosphatidlyserine (PS). Normally, phosphatidylserine is localized on the inner membrane of the plasmalemma. However, during the early stages of apoptosis, externalization of PS takes place. Annexin-V is a calcium binding protein which binds to PS and can be observed with annexin-V-FITC staining by flow cytometry (Martin, et al., 1995). Alexa Fluor® 488-labeled Annexin V, which has a high affinity for PS, is used to detect apoptotic cells by binding to PS on the outer surface of the cell. Propidium iodide staining is used concurrently to detect dead cells. When cells are analyzed by flow cytometry apoptotic cells show Annexin V staining, late apoptotic cells show PI and Annexin V staining, and dead cells show only PI staining. The Vybrant® Apoptosis Assay Kit #2 (Molecular Probes™) used herein in the Examples is an assay that measures Annexin-V positive cells.
CRL-2522 cells, acquired from ATCC, (American Type Culture Collection) are normal fibroblast cells that originated from human foreskin. CRL-2522 cells were maintained in RPMI 1640 medium (Gibco) supplemented with 10% fetal bovine serum (Cansera), 100 U/mL penicillin, 100 μg/mL streptomycin and 0.25 μg/mL amphotericin B. Cultures were maintained in medium at 37° C. with 5% CO2 and 100% relative humidity.
CRL-2522 cells were treated with PC1448 and assayed for apoptosis as described above for PC-3 cells.

[2] = system: PC-3, MDA-MB-231, WiDr, and HT-29 Cells; assay: Order of apoptosis potency across cancer cell lines; set-up: species or system human; conditions: rank based on responses observed in PC-3, MDA-MB-231, WiDr, and HT-29 Cells; 1 = most active

## Segetoside I [PC1464]
PC-3 cells; 1.25 μM PC1464, 36 hr
  Cells with caspase 3/7 activity: 9.6%
  Cells with decreased mitochondrial membrane potential: 1.8%
PC-3 cells; 1.75 μM PC1464, 26 hr
  Cells with caspase 3/7 activity: 8.5%
  Cells with decreased mitochondrial membrane potential: 3.2%
PC-3 cells; 2.5 μM PC1464, 36 hr
  Cells with caspase 3/7 activity: 15.1%
  Cells with decreased mitochondrial membrane potential: 3.4%
PC-3 cells; 3.50 μM PC1464, 26 hr
  Cells with caspase 3/7 activity: 40.4%
  Cells with decreased mitochondrial membrane potential: 14.8%
PC-3 cells; 5.0 μM PC1464, 36 hr
  Cells with caspase 3/7 activity: 57.1%
  Cells with decreased mitochondrial membrane potential: 28.7%
PC-3 cells; 5.25 μM PC1464, 26 hr
  Cells with caspase 3/7 activity: 49.5%
  Cells with decreased mitochondrial membrane potential: 20.3%
PC-3 cells; 7 μM PC1464, 10 hr
  Cells with caspase 3/7 activity: 12.2%
  Cells with decreased mitochondrial membrane potential: 5.1%
PC-3 cells; 7 μM PC1464, 20 hr
  Cells with caspase 3/7 activity: 40.1%
  Cells with decreased mitochondrial membrane potential: 21.4%
PC-3 cells; 7.00 μM PC1464, 26 hr
  Cells with caspase 3/7 activity: 59.4%
  Cells with decreased mitochondrial membrane potential: 24.1%
PC-3 cells; 7 μM PC1464, 30 hours
  Increase in cells with decreased mitochondrial membrane potential: more than ten fold
  Increase in number of cells with caspase 3/7 activity: six fold
PC-3 cells; 7 μM PC1464, 30 hr
  Cells with caspase 3/7 activity: 54.6%
  Cells with decreased mitochondrial membrane potential: 51.2%
PC-3 cells; 10.0 μM PC1464, 36 hr
  Cells with caspase 3/7 activity: 59.6%
  Cells with decreased mitochondrial membrane potential: 43.2%
PC-3 cells; 36 hours
  Concentration of greatest effect on apoptosis: above 5 μM
  Induction of apoptosis at concentrations as low as: 2.5 µM
PC-3 cells; PC1464 1.75-7 μM, 26 hour
  Concentrations with significant effect on induction of apoptosis: ≥ 3.5 µM
[1]
  HD50: 17.5 µM
CRL-2522 cells; 7 μM PC1464, 10-30 hr
  Effect on Annexin V positive cells (in words): little effect
CRL-2522 cells; 7 μM PC1464, 10 hr
  Annexin-V positive cells: 6.0%
CRL-2522 cells; 7 μM PC1464, 20 hr
  Annexin-V positive cells: 8.4%
CRL-2522 cells; 7 μM PC1464, 30 hr
  Annexin-V positive cells: 10.2%
[2]
  Order of Apoptosis Potency: 4

## Segetoside H [PC1448]
PC-3 cells; 2.5 μM PC1448, 37 hr
  Cells with caspase 3/7 activity: 5.6%
  Cells with decreased mitochondrial membrane potential: 6.0%
PC-3 cells; 5.0 μM PC1448, 37 hr
  Cells with caspase 3/7 activity: 35.1%
  Cells with decreased mitochondrial membrane potential: 9.9%
PC-3 cells; 7 μM PC1448, 26 hr
  Cells with caspase 3/7 activity: 77.8%
  Cells with decreased mitochondrial membrane potential: 24.8%
PC-3 cells; 10 μM PC1448, 26 hr
  Cells with caspase 3/7 activity: 86.2%
  Cells with decreased mitochondrial membrane potential: 30.8%
PC-3 cells; 10.0 μM PC1448, 37 hr
  Cells with caspase 3/7 activity: 76.8%
  Cells with decreased mitochondrial membrane potential: 26.7%
PC-3 cells; 14 μM PC1448, 05 hr
  Cells with caspase 3/7 activity: 13.0%
  Cells with decreased mitochondrial membrane potential: 38.0%
PC-3 cells; 14 μM PC1448, 10 hr
  Cells with caspase 3/7 activity: 29.2%
  Cells with decreased mitochondrial membrane potential: 72.5%
PC-3 cells; 14 μM PC1448, 15 hr
  Cells with caspase 3/7 activity: 42.9%
  Cells with decreased mitochondrial membrane potential: 89.4%
PC-3 cells; 14 μM PC1448, 20 hr
  Cells with caspase 3/7 activity: 57.2%
  Cells with decreased mitochondrial membrane potential: 94.1%
PC-3 cells; 14 μM PC1448, 20 hr (4.5% to 94.1%)
  Increase in cells with a decreased mitochondrial membrane potential vs untreated: ~20 fold
PC-3 cells; 14 μM PC1448, 26 hr
  Cells with caspase 3/7 activity: 84.0%
  Cells with decreased mitochondrial membrane potential: 52.0%
PC-3 cells; 14 μM PC1448, over the 20 hr exposure period
  Increase in cells with measurable caspase 3/7 activity vs untreated: approximately a doubling
PC-3 cells; 15.0 μM PC1448, 37 hr
  Cells with caspase 3/7 activity: 72.9%
  Cells with decreased mitochondrial membrane potential: 32.3%
PC-3 cells; 17 μM PC1448, 26 hr
  Cells with caspase 3/7 activity: 77.7%
  Cells with decreased mitochondrial membrane potential: 41.9%
PC-3 cells; 37 hours
  Concentration of greatest effect on apoptosis: above 10 μM
  Induction of apoptosis at concentrations as low as: 5.0 µM
PC-3 cells; PC1448 7-17 μM, 26 hr
  Concentration with the greatest change in cells with decreased mitochondrial membrane potential: 14 µM
  Concentration with the largest increase in caspase 3/7 activity: 10 µM
PC-3 cells; PC1448 7-17 μM, 26 hr, all treated cells
  Increase in caspase 3/7 activity vs untreated: 9 fold
[1]
  HD50: 13.8 µM
CRL-2522 cells; 14 μM PC1448, 10-40 hr
  Change in number of cells showing Annexin V staining (in words): No meaningful changes
CRL-2522 cells; 14 μM PC1448, 10 hr
  Annexin-V positive cells: 17.2%
CRL-2522 cells; 14 μM PC1448, 20 hr
  Annexin-V positive cells: 9.3%
CRL-2522 cells; 14 μM PC1448, 40 hr
  Annexin-V positive cells: 18.2%
[2]
  Order of Apoptosis Potency: 7

From US20110230430A1, “SAPONIN EXTRACT FROM SAPONARIA SPP. AND USES THEREOF” (NATIONAL RESEARCH COUNCIL OF CANADA, priority 2008, published 2011)
